In paper PMC6151650, “The Native Fruit Geoffroea decorticans from Arid Northern Chile: Phenolic Composition, Antioxidant Activities and In Vitro Inhibition of Pro-Inflammatory and Metabolic Syndrome-Associated Enzymes” (Molecules : A Journal of Synthetic Chemistry and Natural …, 2017):

Columns and labels:
[1] = Ferric-reducing antioxidant power (FRAP) assay; conditions: Trolox equivalents
Procedure: (§1) The ferric-reducing antioxidant power (FRAP) assay was carried out according to a previously described method. The cupric-reducing antioxidant capacity (CUPRAC) assay was performed according to literature. Results are expressed as mmoles Trolox equivalents/kg PEE. Catechin was used as a positive control in both assays.

[2] = Scavenging of superoxide anion generated by xanthine oxidase; type: biochemical
Procedure: The superoxide anion generated by xanthine oxidase can be scavenged by polyphenols. In this assay, the flavonol catechin was used as a positive control, showing a SC50 of 8.7 ± 0.1 μg/mL. All G. decorticans fruit PEEs were able to scavenge the superoxide anion, with SC50 values between 14.5–44.2 μg/mL, with the exception of the sample from El Transito II that only scavenged 45.1% the radical at 50 μg/mL.
(§2) The scavenging capacity of the G. decorticans PEEs was evaluated against the free radicals DPPH and superoxide anion. The discoloration of the DPPH radical was carried out according to literature. The scavenging of the superoxide anion was evaluated following a previously described method. Results are presented as the amount of extract that is able to scavenge 50% of the radicals (SC50, μg PEE/mL).

[3] = DPPH discoloration assay
Procedure: as §2

[4] = Cupric-reducing antioxidant capacity (CUPRAC) assay; conditions: Trolox equivalents
Procedure: as §1

[5] = target: T1, COX-1 (Ovis aries, UniProt P05979); experiment: Cyclooxygenase inhibition, commercial kit (COX-1); type: biochemical; conditions: at 50 μg/mL
T1 construct: purchased Cayman Chemical 560131
T1 sequence (P05979 25-600): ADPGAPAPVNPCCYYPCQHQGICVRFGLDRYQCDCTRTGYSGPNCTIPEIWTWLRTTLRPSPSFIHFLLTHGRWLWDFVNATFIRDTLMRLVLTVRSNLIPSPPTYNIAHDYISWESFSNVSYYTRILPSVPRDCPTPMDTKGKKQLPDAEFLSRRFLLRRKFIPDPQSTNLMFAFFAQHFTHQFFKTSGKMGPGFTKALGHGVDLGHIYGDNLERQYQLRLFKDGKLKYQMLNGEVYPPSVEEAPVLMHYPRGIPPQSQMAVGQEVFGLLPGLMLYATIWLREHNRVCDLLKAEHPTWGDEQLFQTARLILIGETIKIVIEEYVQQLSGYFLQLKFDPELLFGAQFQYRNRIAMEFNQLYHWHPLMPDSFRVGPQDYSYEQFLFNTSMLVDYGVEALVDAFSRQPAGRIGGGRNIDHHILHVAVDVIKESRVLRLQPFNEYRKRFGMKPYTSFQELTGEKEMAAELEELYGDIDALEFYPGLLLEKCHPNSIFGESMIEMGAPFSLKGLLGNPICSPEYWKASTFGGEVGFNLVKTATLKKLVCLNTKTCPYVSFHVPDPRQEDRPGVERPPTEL
Procedure: COX inhibitory activity was determined using a commercial kit (560131, Cayman Chemical, Ann Arbor, MI, USA). Enzyme and samples (50 μg PEE/mL) were pre-incubated during 10 min and then arachidonic acid was added. The reaction was conducted for exactly 2 min at 37 °C and halted in boiling water for 5 min. […] Results were expressed as a percentage of inhibition of PGF2α production. The commercial anti-inflammatory compound nimesulide was included as the reference compound [4].

[6] = target: T2, COX-2 (Homo sapiens, UniProt P35354); experiment: Cyclooxygenase inhibition, commercial kit (COX-2); type: biochemical; conditions: read-out: COX-2% Inhibition
T2 construct: purchased Cayman Chemical 560131
T2 sequence (P35354 18-604): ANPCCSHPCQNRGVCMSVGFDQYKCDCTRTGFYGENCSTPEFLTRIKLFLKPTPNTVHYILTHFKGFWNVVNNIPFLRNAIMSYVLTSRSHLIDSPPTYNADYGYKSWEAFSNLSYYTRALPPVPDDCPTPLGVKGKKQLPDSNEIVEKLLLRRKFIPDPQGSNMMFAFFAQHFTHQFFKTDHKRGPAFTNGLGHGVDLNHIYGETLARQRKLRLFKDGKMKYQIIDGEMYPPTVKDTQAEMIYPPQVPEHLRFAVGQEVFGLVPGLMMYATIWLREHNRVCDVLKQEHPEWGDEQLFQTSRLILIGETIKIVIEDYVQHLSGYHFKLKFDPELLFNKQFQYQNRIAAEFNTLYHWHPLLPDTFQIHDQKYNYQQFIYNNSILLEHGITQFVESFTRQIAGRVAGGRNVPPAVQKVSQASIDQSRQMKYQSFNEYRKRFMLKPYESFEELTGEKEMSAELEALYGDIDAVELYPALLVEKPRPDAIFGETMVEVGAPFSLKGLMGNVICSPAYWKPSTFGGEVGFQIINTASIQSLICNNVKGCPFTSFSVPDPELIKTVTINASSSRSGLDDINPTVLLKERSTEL
Procedure: Enzyme and samples (50 μg PEE/mL) were pre-incubated during 10 min and then arachidonic acid was added. The reaction was conducted for exactly 2 min at 37 °C and halted in boiling water for 5 min. […] Results were expressed as a percentage of inhibition of PGF2α production.

[7] = target: T3, sPLA2 (Homo sapiens, UniProt P39877); experiment: Secretory phospholipase A2 inhibition, colorimetric kit; type: biochemical; conditions: read-out: sPLA2 % Inhibition
T3 construct: purchased Cayman Chemical 10004883
T3 sequence (P39877 21-138): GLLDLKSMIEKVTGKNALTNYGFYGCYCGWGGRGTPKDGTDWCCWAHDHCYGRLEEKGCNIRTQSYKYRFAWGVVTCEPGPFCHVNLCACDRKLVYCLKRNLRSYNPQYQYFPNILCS
Procedure: The sPLA2 inhibitory activity was determined using a colorimetric kit (10004883, Cayman Chemical). Enzyme and samples (200–100 μg PEE/mL) were mixed, and then the substrate (diheptanoyl Thio-PC) was added, and incubated during 15 min at 25 °C. Then, DTNB (Ellman’s reagent) was added and absorbance was read at 415 nm. Results are expressed as a percentage of inhibition or IC50 (μg PEE/mL). Ursolic acid was used as the reference compound [37].

[8] = target: porcine pancreas lipase; design: method as in PMID 28454959; conditions: commercial polyphenol standards; cited from earlier work

O.Oc1cc(O)c2c(c1)O[C@H](c1ccc(O)c(O)c1)[C@@H](O)C2 [Catechin]
FRAP [1]: 5.4 ± 0.1 mmol TE/g PEE
O2 Scavenging SC50 [2]: 8.7 ± 0.1 µg/mL
DPPH SC50 ([3]; Table 1, fruit PEEs): 11.4 ± 1.6 µg/mL
DPPH SC50 ([3]; Table 4, Diego de Almagro PEE and Sephadex LH-20 fractions): 11.4 ± 1.6 µg/mL
CUPRAC [4]: 13.4 ± 0.3 mmol TE/g PEE

CS(=O)(=O)Nc1ccc([N+](=O)[O-])cc1Oc1ccccc1 [Nimesulide]
inhibition at 50 µg/mL [5]: 100%
inhibition at 50 µg/mL [6]: 100%

C[C@H]1[C@H](C)CC[C@]2(C(=O)O)CC[C@]3(C)C(=CC[C@@H]4[C@@]5(C)CC[C@H](O)C(C)(C)[C@@H]5CC[C@]43C)[C@H]12 [Ursolic acid]
inhibition at 50 µg/mL [7]: 26.7 ± 0.7%

O=C(O[C@@H]1Cc2c(O)cc(O)cc2O[C@@H]1c1cc(O)c(O)c(O)c1)c1cc(O)c(O)c(O)c1 [epigallocatechin gallate]
IC50 [8]: 391 µM

Oc1cc(O)c2c(c1)O[C@H](c1cc(O)c(O)c(O)c1)[C@H](O)C2 [epigallocatechin]
IC50 [8]: 237 µM

O=C(O)c1cc(O)c(O)c(O)c1 [gallic acid]
IC50 [8]: 387 µM
